The source of these data is patent publication US12636287B2, “Organic compounds” (INTRA-CELLULAR THERAPIES, INC., priority 2018, dated 2026).

Each structure is given as a SMILES string.

For experiment [1], the system named is IN1528 GBM cell line. Kind of experiment: Sensitivity of GBM cell line to Compounds 1 and 2 (ID50). In kind it is cell-based. As to conditions: Homo sapiens.
Experiment [2] has as its system U251MG GBM cell line. Described as above. The experiment is classed as cell-based. As to conditions: Homo sapiens, U-251.
In experiment [3] the target is T1, PDE1 (bovine brain).
T1 construct: Ki; other: PDE1 (bovine brain)
The experiment is classed as biochemical.

For experiment [4], the system named is GBM cells. Kind of experiment: Proliferation and survival of GBM cells over 8 days. The experiment is classed as cell-based, human. As to conditions: for change in GBM cell population by day 8 / rate of proliferation in comparison with untreated samples: 10 μM and 20 μM; for change in GBM cell population by day 8: UWLV301, UWLV304, IN1951, U251MG and IN2045; for rate of proliferation in comparison with untreated samples: recorded daily for 8 days, all cell lines; for slowing or eliminating the proliferation of the GBM cell lines: summary statement. On the procedure: Further studies were carried out to test the effect of Compounds 1 and 2 on proliferation and survival of the GBM cells. […] Results on the change in cell population were observed and recorded daily for 8 days.

The subject of experiment [5] is IN859 GBM cell line. Put plainly: Sensitivity of GBM cell line to Compounds 1 and 2 (ID50). The note with it: Homo sapiens. In kind it is cell-based.
Experiment [6] concerns UWLV301 GBM cell line. Described as above. The note with it: Homo sapiens. The experiment is classed as cell-based.
Experiment [7] concerns UWLV304 GBM cell line. The description is as above. The experiment is classed as cell-based. As to conditions: Homo sapiens.
The test system of experiment [8] is IN1951 GBM cell line. Described as above. In kind it is cell-based. As to conditions: Homo sapiens.
The target in experiment [9] is T2, bovine retina PDE6 (Bos taurus, UniProt P11541+P23439).
T2 construct: bovine retina PDE6; from tissue; host or cells: bovine retina
T2 sequence (P11541 2-856 limits assumed): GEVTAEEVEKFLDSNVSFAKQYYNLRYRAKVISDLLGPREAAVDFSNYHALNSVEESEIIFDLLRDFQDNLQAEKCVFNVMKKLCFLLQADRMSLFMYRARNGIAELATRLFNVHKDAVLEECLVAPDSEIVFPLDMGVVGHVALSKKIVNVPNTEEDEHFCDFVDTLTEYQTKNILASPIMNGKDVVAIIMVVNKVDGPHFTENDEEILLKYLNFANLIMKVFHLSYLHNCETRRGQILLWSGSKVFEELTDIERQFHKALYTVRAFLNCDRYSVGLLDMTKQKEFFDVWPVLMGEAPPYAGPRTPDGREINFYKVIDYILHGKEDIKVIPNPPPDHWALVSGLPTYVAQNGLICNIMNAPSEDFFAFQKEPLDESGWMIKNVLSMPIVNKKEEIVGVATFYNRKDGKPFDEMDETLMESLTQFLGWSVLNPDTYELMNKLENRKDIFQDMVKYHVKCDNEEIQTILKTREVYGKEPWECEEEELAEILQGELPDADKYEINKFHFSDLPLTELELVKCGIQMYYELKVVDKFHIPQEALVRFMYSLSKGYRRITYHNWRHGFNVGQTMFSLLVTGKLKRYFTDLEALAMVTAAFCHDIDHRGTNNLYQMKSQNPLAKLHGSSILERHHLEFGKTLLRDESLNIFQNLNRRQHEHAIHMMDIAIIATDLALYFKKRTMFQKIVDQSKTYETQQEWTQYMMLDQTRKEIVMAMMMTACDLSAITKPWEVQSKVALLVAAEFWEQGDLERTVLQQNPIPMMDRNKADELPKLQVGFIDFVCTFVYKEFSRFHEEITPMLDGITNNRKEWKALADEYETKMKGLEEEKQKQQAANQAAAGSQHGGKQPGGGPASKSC
T2 sequence (P23439 2-850 limits assumed): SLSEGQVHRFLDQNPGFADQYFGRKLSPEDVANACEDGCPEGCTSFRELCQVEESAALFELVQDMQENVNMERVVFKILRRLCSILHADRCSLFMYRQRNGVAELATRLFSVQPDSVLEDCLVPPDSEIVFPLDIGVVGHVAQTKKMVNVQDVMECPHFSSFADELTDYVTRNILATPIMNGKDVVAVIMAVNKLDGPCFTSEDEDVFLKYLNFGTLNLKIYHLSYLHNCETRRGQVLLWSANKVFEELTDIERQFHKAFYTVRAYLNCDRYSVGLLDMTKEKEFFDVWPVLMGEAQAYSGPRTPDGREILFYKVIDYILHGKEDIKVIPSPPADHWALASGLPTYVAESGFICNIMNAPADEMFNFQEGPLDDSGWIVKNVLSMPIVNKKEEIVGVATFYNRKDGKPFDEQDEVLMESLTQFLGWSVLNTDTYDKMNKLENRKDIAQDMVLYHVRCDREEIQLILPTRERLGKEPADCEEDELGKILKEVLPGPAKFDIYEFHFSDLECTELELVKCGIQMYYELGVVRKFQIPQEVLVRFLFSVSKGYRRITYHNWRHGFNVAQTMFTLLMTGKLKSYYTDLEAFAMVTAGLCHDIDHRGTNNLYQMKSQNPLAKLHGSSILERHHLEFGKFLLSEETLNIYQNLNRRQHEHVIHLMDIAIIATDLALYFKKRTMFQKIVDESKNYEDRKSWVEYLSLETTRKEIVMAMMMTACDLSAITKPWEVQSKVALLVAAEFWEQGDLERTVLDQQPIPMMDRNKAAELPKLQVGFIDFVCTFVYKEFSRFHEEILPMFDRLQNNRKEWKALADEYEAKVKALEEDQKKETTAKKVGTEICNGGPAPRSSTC
Put plainly: Inhibitory constant against PDEs. The experiment is classed as biochemical.

The test system of experiment [10] is IN2045 GBM cell line. Put plainly: Sensitivity of GBM cell line to Compounds 1 and 2 (ID50). The experiment is classed as cell-based. As to conditions: Homo sapiens.

Consider `CN1C(=O)c2c(nn(Cc3ccc(-c4cccc(F)n4)cc3)c2Nc2ccccc2)N2C1=N[C@@H]1CCC[C@@H]12` [Compound 1], for which the IC50 (as a rule, the concentration at which inhibition is half-maximal) was 26.5 µM in experiment [1]; 17.8 µM in experiment [2]; 34.9 µM in [5]; 5.4 µM in experiment [6]; 6.4 µM in [7]; 2.04 µM in experiment [8]. The same molecule registered an IC50 in [10] of 18.4 µM. Further, the values for the inhibition constant (Ki) in experiment [3] and in experiment [9] were 0.058 nM and 0.32 µM, respectively. Further, in experiment [4], the “change in GBM cell population by day 8” value is given as “overall decrease”. The “rate of proliferation in comparison with untreated samples” value in experiment [4] is “proliferated at a slower rate”. Further, the “slowing or eliminating the proliferation of the GBM cell lines” value in experiment [4] was “highly effective”.

As to `CC(=O)c1ccc(Cn2nc3c(c2Nc2ccc(F)cc2)C(=O)N(C)C2=NC(C)(C)CN23)cc1` [Compound 2], the IC50 in experiment [1] was determined as 9.45 µM; in [2], 32 µM; in experiment [5] it was 9.77 µM; in experiment [6], 4.73 µM; in experiment [7], 2.87 µM; in experiment [8], 1.03 µM. The same molecule displayed an IC50 in [10] of 12 µM. In addition, the “change in GBM cell population by day 8” value in experiment [4] is recorded as “overall decrease”. The “rate of proliferation in comparison with untreated samples” value in experiment [4] is reported as “proliferated at a slower rate”. Moreover, the “slowing or eliminating the proliferation of the GBM cell lines” value in experiment [4] is “highly effective”.
